Source: article PMC7473988 (Journal of Experimental Pharmacology, 2020)
Where “and” joins values, the source holds several entries; their conditions need not be identical. Equal values may be shown once. Where a name gives a salt, the structure may show the parent alone.

Key:
[1] = target: T1, SERT (Homo sapiens, UniProt P31645); conditions: cited from earlier work
[2] = test system: 5-HT in rat and mouse PFC; conditions: cited from earlier work
[3] = test system: neuronal receptors; conditions: binding affinity study; cited from earlier work
[4] = test system: 5-HT1B; conditions: viloxazine 10 µM
[5] = target: T2, 5-HT2B (Homo sapiens, UniProt P41595); experiment: cell-based
T2 sequence (P41595 whole entry): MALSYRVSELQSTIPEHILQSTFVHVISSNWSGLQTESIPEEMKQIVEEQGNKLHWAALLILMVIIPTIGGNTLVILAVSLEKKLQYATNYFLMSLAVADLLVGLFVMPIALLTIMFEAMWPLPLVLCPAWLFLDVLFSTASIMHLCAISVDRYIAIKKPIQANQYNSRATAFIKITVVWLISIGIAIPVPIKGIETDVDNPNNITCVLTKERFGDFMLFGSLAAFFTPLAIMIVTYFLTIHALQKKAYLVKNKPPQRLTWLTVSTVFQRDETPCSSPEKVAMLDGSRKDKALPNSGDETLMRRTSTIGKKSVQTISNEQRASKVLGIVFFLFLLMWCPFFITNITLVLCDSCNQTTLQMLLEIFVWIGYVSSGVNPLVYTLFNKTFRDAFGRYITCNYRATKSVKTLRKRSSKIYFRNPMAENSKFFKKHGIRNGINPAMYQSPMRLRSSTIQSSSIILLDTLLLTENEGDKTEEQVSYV

[6] = target: muscarinic cholinergic receptor M4 (Homo sapiens, UniProt P08173); experiment: Cerep Bioprint radioligand binding assay: M4; conditions: read-out: percent inhibition of the binding of a radiolabeled ligand
[7] = target: muscarinic cholinergic receptor M1 (Homo sapiens, UniProt P11229); experiment: Cerep Bioprint radioligand binding assay: M1; conditions: read-out: percent inhibition of the binding of a radiolabeled ligand
[8] = target: monoamine oxidase A (MAO-A) (Rattus norvegicus, UniProt P21396); experiment: Cerep Bioprint panel assay: MAO-A; conditions: read-out: percent inhibition (activity towards MAO-A)
[9] = target: NET (Rattus norvegicus, UniProt Q63380); experiment: biochemical; conditions: IC50, inhibition of [3H]-NE uptake (NET), rat hypothalamic synaptosomes
[10] = target: DA receptor D1 (Homo sapiens, UniProt P21728); experiment: Cerep Bioprint radioligand binding assay: D1; conditions: read-out: percent inhibition of the binding of a radiolabeled ligand
[11] = test system: GABA transporter (GAT); experiment: Cerep Bioprint radioligand binding assay: GAT; conditions: viloxazine 10 µM
[12] = target: histaminic receptor H1 (Homo sapiens, UniProt P35367)
Sequence of histaminic receptor H1 (P35367 whole entry): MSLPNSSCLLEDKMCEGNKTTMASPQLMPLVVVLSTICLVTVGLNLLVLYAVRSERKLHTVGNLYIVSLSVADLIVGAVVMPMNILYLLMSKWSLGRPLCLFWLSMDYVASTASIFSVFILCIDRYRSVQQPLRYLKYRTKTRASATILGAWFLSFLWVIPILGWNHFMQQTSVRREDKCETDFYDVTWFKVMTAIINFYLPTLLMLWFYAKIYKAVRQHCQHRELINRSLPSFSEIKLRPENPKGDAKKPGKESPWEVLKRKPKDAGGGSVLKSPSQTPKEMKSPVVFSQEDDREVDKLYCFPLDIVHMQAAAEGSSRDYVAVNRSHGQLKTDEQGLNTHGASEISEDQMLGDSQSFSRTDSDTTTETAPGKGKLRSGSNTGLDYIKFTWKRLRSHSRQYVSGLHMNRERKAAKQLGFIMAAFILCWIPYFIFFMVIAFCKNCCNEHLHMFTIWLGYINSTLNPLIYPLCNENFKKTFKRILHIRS

[13] = target: T1, SERT; experiment: Cerep Bioprint radioligand binding assay: SERT; conditions: viloxazine 10 µM
[14] = target: DAT (Homo sapiens, UniProt Q01959); experiment: Cerep Bioprint radioligand binding assay: DAT; conditions: read-out: percent inhibition (activity towards DAT)
[15] = target: His receptor H1 (Homo sapiens, UniProt P35367); experiment: Cerep Bioprint radioligand binding assay: H1; conditions: read-out: percent inhibition of the binding of a radiolabeled ligand
[16] = target: ADRα1B (Homo sapiens, UniProt P35368); experiment: cell-based
[17] = target: ADRα2C (Homo sapiens, UniProt P18825)
[18] = target: DA receptor D3 (Homo sapiens, UniProt P35462); experiment: Cerep Bioprint radioligand binding assay: D3; conditions: read-out: percent inhibition of the binding of a radiolabeled ligand
[19] = target: ADRβ1 (Homo sapiens, UniProt P08588)
[20] = target: muscarinic cholinergic receptor M3 (Homo sapiens, UniProt P20309); experiment: Cerep Bioprint radioligand binding assay: M3; conditions: read-out: percent inhibition of the binding of a radiolabeled ligand
[21] = target: ADRβ2 (Homo sapiens, UniProt P07550); experiment: cell-based
[22] = target: choline transporter (CHT-1) (Homo sapiens, UniProt Q9GZV3); experiment: Cerep Bioprint radioligand binding assay: CHT-1; conditions: viloxazine 10 µM
[23] = target: cholinergic muscarinic receptor M3 (Homo sapiens, UniProt P20309)
Sequence of cholinergic muscarinic receptor M3 (P20309 whole entry): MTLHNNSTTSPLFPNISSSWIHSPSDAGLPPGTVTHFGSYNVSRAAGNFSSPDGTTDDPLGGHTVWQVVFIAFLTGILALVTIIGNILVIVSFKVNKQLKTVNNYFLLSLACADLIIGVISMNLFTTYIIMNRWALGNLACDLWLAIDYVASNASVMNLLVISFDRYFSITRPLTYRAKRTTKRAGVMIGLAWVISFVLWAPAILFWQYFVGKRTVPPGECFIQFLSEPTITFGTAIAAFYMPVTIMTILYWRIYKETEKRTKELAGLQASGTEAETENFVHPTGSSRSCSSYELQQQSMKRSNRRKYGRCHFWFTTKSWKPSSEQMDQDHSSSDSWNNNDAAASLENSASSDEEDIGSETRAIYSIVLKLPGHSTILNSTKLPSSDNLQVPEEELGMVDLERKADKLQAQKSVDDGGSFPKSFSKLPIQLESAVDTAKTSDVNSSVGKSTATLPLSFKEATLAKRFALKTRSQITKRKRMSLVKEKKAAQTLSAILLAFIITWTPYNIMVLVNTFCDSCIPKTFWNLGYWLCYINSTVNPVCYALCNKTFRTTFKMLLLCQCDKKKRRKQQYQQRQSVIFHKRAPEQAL

[24] = target: ADRα1A (Homo sapiens, UniProt P35348)
[25] = test system: extracellular neurotransmitter levels in the PFC, Acb, and Amg; conditions: viloxazine 50 mg/kg IP, compared to baseline or vehicle
[26] = test system: 5-HT2B; conditions: at all concentrations, clinical doses of 100, 200, 400, and 600 mg/day
[27] = target: T3, 5-HT7 (Homo sapiens, UniProt P34969); experiment: Cerep Bioprint radioligand binding assay: 5-HT7; conditions: read-out: percent inhibition of the binding of a radiolabeled ligand
[28] = test system: 5-HT2C; conditions: at all concentrations except at 100 mg/day dose
[29] = target: ADRα2B (Homo sapiens, UniProt P18089)
[30] = target: dopaminergic receptor D3 (Homo sapiens, UniProt P35462)
[31] = target: muscarinic cholinergic receptor M2 (Homo sapiens, UniProt P08172); experiment: Cerep Bioprint radioligand binding assay: M2; conditions: read-out: percent inhibition of the binding of a radiolabeled ligand
[32] = target: T2, 5-HT2B; experiment: Cerep Bioprint radioligand binding assay: 5-HT2B
[33] = target: NET (Homo sapiens, UniProt P23975); experiment: Cerep Bioprint radioligand binding assay: NET; conditions: read-out: percent inhibition of the binding of a radiolabeled ligand
[34] = target: T4, 5-HT2C (Homo sapiens, UniProt P28335); experiment: biochemical; conditions: read-out: percent inhibition of the binding of a radiolabeled ligand
[35] = target: T5, 5-HT2A (Homo sapiens, UniProt P28223); experiment: cell-based
T5 sequence (P28223 whole entry, species assumed): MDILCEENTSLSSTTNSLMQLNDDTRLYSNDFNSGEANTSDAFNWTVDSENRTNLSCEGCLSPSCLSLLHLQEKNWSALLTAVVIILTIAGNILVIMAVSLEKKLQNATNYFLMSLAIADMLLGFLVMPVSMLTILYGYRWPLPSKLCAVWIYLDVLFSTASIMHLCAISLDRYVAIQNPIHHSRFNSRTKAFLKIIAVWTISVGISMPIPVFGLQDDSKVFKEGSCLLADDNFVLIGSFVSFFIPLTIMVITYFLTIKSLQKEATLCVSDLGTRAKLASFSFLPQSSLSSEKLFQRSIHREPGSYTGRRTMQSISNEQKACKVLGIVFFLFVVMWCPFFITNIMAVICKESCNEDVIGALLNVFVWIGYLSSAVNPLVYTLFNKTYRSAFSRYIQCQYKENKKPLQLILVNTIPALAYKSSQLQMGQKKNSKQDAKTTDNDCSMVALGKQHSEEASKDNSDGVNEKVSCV

[36] = target: T3, 5-HT7; experiment: cell-based; conditions: read-out: antagonistic activity at 5-HT7, inhibition
Target sequence in this assay (P34969 whole entry): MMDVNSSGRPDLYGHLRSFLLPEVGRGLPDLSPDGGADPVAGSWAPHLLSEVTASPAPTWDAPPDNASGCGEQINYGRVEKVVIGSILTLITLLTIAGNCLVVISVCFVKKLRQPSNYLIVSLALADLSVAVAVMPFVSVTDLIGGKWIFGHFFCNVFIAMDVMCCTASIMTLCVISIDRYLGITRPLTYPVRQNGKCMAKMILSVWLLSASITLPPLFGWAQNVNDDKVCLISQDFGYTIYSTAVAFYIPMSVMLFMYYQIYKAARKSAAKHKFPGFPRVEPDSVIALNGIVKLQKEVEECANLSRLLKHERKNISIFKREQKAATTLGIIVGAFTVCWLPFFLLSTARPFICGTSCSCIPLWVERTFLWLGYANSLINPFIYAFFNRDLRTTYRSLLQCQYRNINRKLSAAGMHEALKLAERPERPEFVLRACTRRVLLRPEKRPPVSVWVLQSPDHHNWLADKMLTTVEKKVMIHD

[37] = target: ADRα2A (Homo sapiens, UniProt P08913)
[38] = target: adrenergic alpha1B (ADRα1B) receptor (Homo sapiens, UniProt P35368); experiment: Cerep Bioprint radioligand binding assay: ADRα1B; conditions: read-out: percent inhibition of the binding of a radiolabeled ligand
[39] = target: dopaminergic receptor D2S (Homo sapiens, UniProt P14416)
Sequence of dopaminergic receptor D2S (P14416 1-414 isoform P14416-2): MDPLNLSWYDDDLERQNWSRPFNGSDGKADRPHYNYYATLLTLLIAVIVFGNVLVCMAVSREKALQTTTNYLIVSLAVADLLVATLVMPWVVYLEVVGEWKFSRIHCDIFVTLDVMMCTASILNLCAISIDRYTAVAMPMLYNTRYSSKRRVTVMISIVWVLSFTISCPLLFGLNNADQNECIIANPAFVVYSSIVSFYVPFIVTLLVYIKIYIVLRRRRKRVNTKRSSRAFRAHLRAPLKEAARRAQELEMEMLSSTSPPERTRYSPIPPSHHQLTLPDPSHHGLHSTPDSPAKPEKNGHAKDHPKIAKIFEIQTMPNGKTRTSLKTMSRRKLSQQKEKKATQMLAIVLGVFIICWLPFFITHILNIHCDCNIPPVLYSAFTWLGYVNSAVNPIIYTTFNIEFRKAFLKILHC

[40] = target: cholinergic muscarinic receptor M4 (Homo sapiens, UniProt P08173)
Sequence of cholinergic muscarinic receptor M4 (P08173 whole entry): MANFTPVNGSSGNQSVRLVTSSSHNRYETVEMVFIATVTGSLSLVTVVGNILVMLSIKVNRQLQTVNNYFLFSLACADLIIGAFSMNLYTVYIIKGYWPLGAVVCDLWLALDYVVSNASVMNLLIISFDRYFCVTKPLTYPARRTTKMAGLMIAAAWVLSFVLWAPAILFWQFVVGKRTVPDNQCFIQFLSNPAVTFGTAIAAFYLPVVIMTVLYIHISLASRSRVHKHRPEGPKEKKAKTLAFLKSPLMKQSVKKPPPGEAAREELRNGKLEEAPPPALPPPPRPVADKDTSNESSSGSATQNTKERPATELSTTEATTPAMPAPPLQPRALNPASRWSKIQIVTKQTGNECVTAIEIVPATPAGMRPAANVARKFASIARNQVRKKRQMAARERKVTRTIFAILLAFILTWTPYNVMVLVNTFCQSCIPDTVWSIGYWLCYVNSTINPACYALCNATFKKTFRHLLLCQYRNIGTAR

[41] = target: 5-HT6 (Homo sapiens, UniProt P50406)
[42] = target: cholinergic muscarinic receptor M1 (Homo sapiens, UniProt P11229)
Sequence of cholinergic muscarinic receptor M1 (P11229 whole entry): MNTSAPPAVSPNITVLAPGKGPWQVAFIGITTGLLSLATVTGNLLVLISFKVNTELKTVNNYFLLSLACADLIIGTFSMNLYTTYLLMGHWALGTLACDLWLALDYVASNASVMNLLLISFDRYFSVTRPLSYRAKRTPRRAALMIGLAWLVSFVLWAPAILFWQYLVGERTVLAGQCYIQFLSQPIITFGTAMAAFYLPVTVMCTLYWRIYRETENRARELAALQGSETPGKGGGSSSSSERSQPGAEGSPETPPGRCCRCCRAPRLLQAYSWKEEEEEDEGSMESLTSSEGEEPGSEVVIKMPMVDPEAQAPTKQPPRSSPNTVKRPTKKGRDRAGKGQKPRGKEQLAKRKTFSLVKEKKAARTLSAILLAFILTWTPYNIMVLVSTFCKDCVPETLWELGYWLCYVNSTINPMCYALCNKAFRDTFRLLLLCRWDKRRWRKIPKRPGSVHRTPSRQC

[43] = target: T3, 5-HT7; conditions: concentrations up to 100 µM
Target sequence in this assay (P34969 whole entry): as the sequence (P34969 whole entry) above

[44] = target: T5, 5-HT2A; conditions: concentrations up to 300 µM
[45] = target: dopaminergic receptor D1 (Homo sapiens, UniProt P21728)
Sequence of dopaminergic receptor D1 (P21728 whole entry): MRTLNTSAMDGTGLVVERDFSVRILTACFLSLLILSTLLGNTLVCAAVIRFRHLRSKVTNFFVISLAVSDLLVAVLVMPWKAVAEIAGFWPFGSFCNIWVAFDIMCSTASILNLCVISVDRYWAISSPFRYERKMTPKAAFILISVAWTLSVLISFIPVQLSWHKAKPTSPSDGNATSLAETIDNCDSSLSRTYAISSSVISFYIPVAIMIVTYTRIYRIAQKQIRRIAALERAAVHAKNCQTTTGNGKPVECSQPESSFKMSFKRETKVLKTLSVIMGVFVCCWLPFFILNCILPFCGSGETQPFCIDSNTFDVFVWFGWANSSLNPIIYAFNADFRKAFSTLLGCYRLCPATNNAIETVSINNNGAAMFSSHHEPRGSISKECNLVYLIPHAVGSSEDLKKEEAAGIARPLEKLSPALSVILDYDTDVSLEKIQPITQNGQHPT

[46] = target: adrenergic alpha1A (ADRα1A) receptor (Homo sapiens, UniProt P35348); experiment: Cerep Bioprint radioligand binding assay: ADRα1A; conditions: read-out: percent inhibition of the binding of a radiolabeled ligand
[47] = target: 5-HT1B (Homo sapiens, UniProt P28222)
[48] = target: T4, 5-HT2C; experiment: cell-based; conditions: CHO, read-out: Emax, agonistic activity towards 5-HT2C
[49] = target: His receptor H2 (Homo sapiens, UniProt P25021); experiment: Cerep Bioprint radioligand binding assay: H2; conditions: read-out: percent inhibition of the binding of a radiolabeled ligand
[50] = target: 5-HT1A (Homo sapiens, UniProt P08908)
[51] = target: 5-HT1D (Rattus norvegicus, UniProt P28565)
[52] = target: DA receptor D2S (Homo sapiens, UniProt P14416); experiment: Cerep Bioprint radioligand binding assay: D2S; conditions: read-out: percent inhibition of the binding of a radiolabeled ligand
[53] = test system: DA in the striatum; conditions: freely moving spontaneously hypertensive rats; cited from earlier work

T1 sequence (P31645 whole entry, species assumed): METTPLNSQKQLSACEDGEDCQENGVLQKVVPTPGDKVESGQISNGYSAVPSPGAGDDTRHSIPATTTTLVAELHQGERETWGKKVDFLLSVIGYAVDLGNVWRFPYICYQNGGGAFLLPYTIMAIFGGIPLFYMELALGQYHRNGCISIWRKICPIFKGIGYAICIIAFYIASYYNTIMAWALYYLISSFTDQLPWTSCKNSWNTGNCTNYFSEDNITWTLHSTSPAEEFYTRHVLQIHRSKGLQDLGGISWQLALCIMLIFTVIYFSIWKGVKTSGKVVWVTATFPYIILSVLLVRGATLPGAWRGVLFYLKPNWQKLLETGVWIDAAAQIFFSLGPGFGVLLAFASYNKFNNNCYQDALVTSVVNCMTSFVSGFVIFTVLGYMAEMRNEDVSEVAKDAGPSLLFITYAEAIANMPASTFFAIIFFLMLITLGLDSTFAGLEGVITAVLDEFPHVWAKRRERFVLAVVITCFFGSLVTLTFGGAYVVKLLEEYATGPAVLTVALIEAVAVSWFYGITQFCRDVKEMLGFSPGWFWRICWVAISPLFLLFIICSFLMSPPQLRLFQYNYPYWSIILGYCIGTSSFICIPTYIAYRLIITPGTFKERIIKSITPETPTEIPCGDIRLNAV

## CNCC[C@@H](Oc1ccccc1C)c1ccccc1 [Atomoxetine, atomoxetine]
[1]
  SERT occupancy: > 85%
[2]
  effect on 5-HT in rat and mouse PFC by microdialysis: not found to functionally increase 5-HT
[3]
  affinity for neuronal receptors: does not possess appreciable affinity

## CCOc1ccccc1OCC1CNCCO1 (centres unmarked) [Viloxazine, Viloxazine hydrochloride]
[4]
  percent inhibition of the binding of a radiolabeled ligand: > 50%
[5]
  IC50: 27 µM
[6]
  inhibition at 10 µM: < 25%
[7]
  inhibition at 10 µM: < 25%
[8]
  inhibition at 10 µM: ~10%
[9]
  IC50: 0.26 µM and ~0.3 µM
[10]
  inhibition at 10 µM: < 25%
[11]
  binding to the GABA transporter (GAT): negligible binding
[12]
  antagonistic activity towards H1: either very weak (IC50 > 150 µM) or no antagonistic activity
[12]; concentrations up to 300 µM
  agonistic activity towards H1: no significant agonistic activity
[13]
  binding to SERT: negligible binding
[14]
  inhibition at 10 µM: ~10%
[15]
  inhibition at 10 µM: < 25%
[16]
  IC50: 93 µM
[17]
  agonistic or antagonistic activity towards ADRα2C: either very weak (IC50 > 150 µM) or no significant agonistic or antagonistic activity
[18]
  inhibition at 10 µM: < 25%
[19]
  agonistic or antagonistic activity towards ADRβ1: either very weak (IC50 > 150 µM) or no significant agonistic or antagonistic activity
[20]
  inhibition at 10 µM: < 25%
[21]
  IC50: 68 µM
[22]
  binding to the choline transporter (CHT-1): negligible binding
[23]
  antagonistic activity towards M3: either very weak (IC50 > 150 µM) or no antagonistic activity
[23]; concentrations up to 300 µM
  agonistic activity towards M3: no significant agonistic activity
[24]
  agonistic or antagonistic activity towards ADRα1A: either very weak (IC50 > 150 µM) or no significant agonistic or antagonistic activity
[25]
  change in extracellular level of ACh: No significant changes
  change in extracellular level of GABA: No significant changes
  change in extracellular level of Glu: No significant changes
  change in extracellular level of His: No significant changes
[26]
  calculated 5-HT2B occupancy at clinical doses: higher than 80%
[27]
  inhibition at 10 µM: > 50%
[28]
  calculated 5-HT2C occupancy at clinical doses: higher than 80%
[29]
  agonistic or antagonistic activity towards ADRα2B: either very weak (IC50 > 150 µM) or no significant agonistic or antagonistic activity
[30]
  antagonistic activity towards D3: either very weak (IC50 > 150 µM) or no antagonistic activity
[30]; concentrations up to 300 µM
  agonistic activity towards D3: no significant agonistic activity
[31]
  inhibition at 10 µM: < 25%
[32]; Ki for 5-HT2B, constant of binding used for receptor occupancy
  Ki: 6.4 µM
[32]; read-out: percent inhibition of the binding of a radiolabeled ligand
  inhibition at 10 µM: > 50%
[33]
  inhibition at 10 µM: > 50%
[34]
  inhibition at 10 µM: > 50%
[35]
  IC50: > 300 µM
[36]
  inhibition at 100 µM: 52%
[37]
  agonistic or antagonistic activity towards ADRα2A: either very weak (IC50 > 150 µM) or no significant agonistic or antagonistic activity
[38]
  inhibition at 10 µM: > 50%
[39]
  antagonistic activity towards D2S: either very weak (IC50 > 150 µM) or no antagonistic activity
[39]; concentrations up to 300 µM
  agonistic activity towards D2S: no significant agonistic activity
[40]
  antagonistic activity towards M4: either very weak (IC50 > 150 µM) or no antagonistic activity
[40]; concentrations up to 300 µM
  agonistic activity towards M4: no significant agonistic activity
[41]
  agonistic or antagonistic activity towards 5-HT6: did not show any significant agonistic or antagonistic activity
[42]
  antagonistic activity towards M1: either very weak (IC50 > 150 µM) or no antagonistic activity
[42]; concentrations up to 300 µM
  agonistic activity towards M1: no significant agonistic activity
[43]
  agonistic activity at 5-HT7: no agonistic activity
[44]
  agonistic effect at 5-HT2A: no agonistic effect
[45]
  antagonistic activity towards D1: either very weak (IC50 > 150 µM) or no antagonistic activity
[45]; concentrations up to 300 µM
  agonistic activity towards D1: no significant agonistic activity
[46]
  inhibition at 10 µM: > 50%
[47]
  agonistic or antagonistic activity towards 5-HT1B: did not show any significant agonistic or antagonistic activity
[48]
  Emax: 78.6%
[49]
  inhibition at 10 µM: < 25%
[50]
  agonistic or antagonistic activity towards 5-HT1A: did not show any significant agonistic or antagonistic activity
[51]
  agonistic or antagonistic activity towards 5-HT1D: did not show any significant agonistic or antagonistic activity
[52]
  inhibition at 10 µM: < 25%

## C[C@H](N)Cc1ccccc1 [d-amphetamine]
[53]
  increase of DA from the baseline level in the striatum: 700%

## C[C@@H](N)Cc1ccccc1 [l-amphetamine]
[53]
  increase of DA from the baseline level in the striatum: 1,200%
